Publication PMC3021692, “Synthesis and Pharmacological Evaluation of Novel Schiff Base Analogues of 3-(4-amino) Phenylimino) 5-fluoroindolin-2-one” (Journal of Young Pharmacists : JYP, 2010)

Tests used:
Type in all cases: in vivo
Settings in all cases: mean ± SD (n = 6)
Wistar albino mice = test: Analgesic activity, tail-flick technique
Protocol: (§1) The synthesized compounds were evaluated for analgesic, anti-inflammatory, and ulcerogenic index. […] The test compounds and the standard drugs were administered in the form of a suspension (1% carboxymethyl cellulose as a vehicle) by oral route for analgesic and anti-inflammatory but for ulcerogenicity studies by intraperitoneally as suspension in 10% v/v Tween-20. Each group consisted of six animals. The animals were procured from the C. L. Baid Metha College of pharmacy, Chennai, and were maintained in colony cages at 25 ±2°C, relative humidity of 45-55%, under a 12-h light and dark cycle; they were fed standard animal feed. All the animals were acclimatized for a week before use. The Institutional Animal Ethics Committee approved the protocol adopted for the experimentation of animals.
The analgesic activity was performed by tail-flick technique using Wistar albino mice (25-35 g) of either sex selected by the random sampling technique.[1314] Diclofenac sodium at a dose level of 10 mg/kg and 20 mg/kg was administered orally as reference drug for comparison. The test compounds at two dose levels (10, 20 mg/kg) were administered orally. The reaction time was recorded at 30 min, 1, 2, and 3 h after the treatment, and cut-off time was 10 s. The percent analgesic activity (PAA) was calculated by the following formula, where T1 is the reaction time (s) before treatment, and T2 is the reaction time (s) after treatment.

[1] = test system: carrageenan-induced paw edema in rats; test: Anti-inflammatory activity, carrageenan-induced paw edema test
Protocol: as §1
Anti-inflammatory activity was evaluated by carrageenan-induced paw edema test in rats.[15] Diclofenac sodium 10, 20 mg/kg was administered as a standard drug for comparison. The test compounds were administered at two dose levels (10 mg/kg, 20 mg/kg). The paw volumes were measured using the mercury displacement technique with the help of a plethysmograph (Model PLYAN; Buxco, USA) immediately before and 30 min, 1, 2, and 3 h after carrageenan injection. The percent inhibition of paw edema was calculated using the following formula.
Percent inhibition I = 100 1− (a−x) / (b−y)
Where x is the mean paw volume of rats before the administration of carrageenan and test compounds or reference compound (test group), a is the mean paw volume of rats after the administration of carrageenan in the test group (drug treated), b is the mean paw volume of rats after the administration of carrageenan in the control group, y is the mean paw volume of rats before the administration of carrageenan in the control group.

[2] = test system: Albino rats of Wistar strain; test: Evaluation of ulcerogenicity index (pylorus ligation); set-up: scale not given here
Protocol: The synthesized compounds were evaluated for analgesic, anti-inflammatory, and ulcerogenic index. […] The test compounds and the standard drugs were administered in the form of a suspension (1% carboxymethyl cellulose as a vehicle) by oral route for analgesic and anti-inflammatory but for ulcerogenicity studies by intraperitoneally as suspension in 10% v/v Tween-20. Each group consisted of six animals. The animals were procured from the C. L. Baid Metha College of pharmacy, Chennai, and were maintained in colony cages at 25 ±2°C, relative humidity of 45-55%, under a 12-h light and dark cycle; they were fed standard animal feed. All the animals were acclimatized for a week before use. The Institutional Animal Ethics Committee approved the protocol adopted for the experimentation of animals. Ulceration in rats was induced as described by Goyal et al. Albino rats of Wistar strain weighing 150-200 g of either sex were divided into various groups each of six animals.[16] Control group of animals was administered only with 10% v/v Tween 80 suspension intraperitonially. One group was administered with aspirin (German Remedies) intraperitoneally at a dose of 200 mg/kg once daily for 3 days. The remaining group of animals was administered with test compounds intraperitoneally at a dose of 20 mg/kg. On fourth day, Pylorus was ligated as per the method of Shay et al.[17] Animals were fasted for 36 h before the pylorus ligation procedure. Four hours after the ligation, animals were sacrificed. The stomach was removed and opened along with the greater curvature. Ulcer index was determined by the method of Ganguly and Bhatnagar.[18]

[3] = 10 mg/kg oral, 30 min after treatment
[4] = 10 mg/kg oral, 1 h after treatment
[5] = 10 mg/kg oral, 2 h after treatment
[6] = 10 mg/kg oral, 3 h after treatment
[7] = 20 mg/kg oral, 30 min after treatment
[8] = 20 mg/kg oral, 1 h after treatment
[9] = 20 mg/kg oral, 2 h after treatment
[10] = 20 mg/kg oral, 3 h after treatment
[11] = 10 mg/kg oral, 30 min after carrageenan
[12] = 10 mg/kg oral, 1 h after carrageenan
[13] = 10 mg/kg oral, 2 h after carrageenan
[14] = 10 mg/kg oral, 3 h after carrageenan
[15] = 20 mg/kg oral, 30 min after carrageenan
[16] = 20 mg/kg oral, 1 h after carrageenan
[17] = 20 mg/kg oral, 2 h after carrageenan
[18] = 20 mg/kg oral, 3 h after carrageenan

| Structure (SMILES) | Percent analgesic activity (Wistar albino mice; [3]) | Percent analgesic activity (Wistar albino mice; [4]) | Percent analgesic activity (Wistar albino mice; [5]) | Percent analgesic activity (Wistar albino mice; [6]) | Percent analgesic activity (Wistar albino mice; [7]) | Percent analgesic activity (Wistar albino mice; [8]) | Percent analgesic activity (Wistar albino mice; [9]) | Percent analgesic activity (Wistar albino mice; [10]) | Percent anti-inflammatory activity (percent inhibition of paw edema) [1, 11] | Percent anti-inflammatory activity (percent inhibition of paw edema) [1, 12] | Percent anti-inflammatory activity (percent inhibition of paw edema) [1, 13] | Percent anti-inflammatory activity (percent inhibition of paw edema) [1, 14] | Percent anti-inflammatory activity (percent inhibition of paw edema) [1, 15] | Percent anti-inflammatory activity (percent inhibition of paw edema) [1, 16] | Percent anti-inflammatory activity (percent inhibition of paw edema) [1, 17] | Percent anti-inflammatory activity (percent inhibition of paw edema) [1, 18] | Ulcer index ([2]; test compounds 20 mg/kg intraperitoneally, pylorus ligated on fourth day) | Ulcer index ([2]; diclofenac reference, dose not given) |
| --- | --- | --- | --- | --- | --- | --- | --- | --- | --- | --- | --- | --- | --- | --- | --- | --- | --- | --- |
| O=C1Nc2ccc(F)cc2C1=Nc1ccc(N=Cc2ccc(O)cc2)cc1 [Compound N10] | 43 ± 1.55 % | 46 ± 1.72 % | 49 ± 1.52 % | 38 ± 1.92 % | 48 ± 1.56 % | 52 ± 1.96 % | 58 ± 1.16 % | 42 ± 1.43 % | 43 ± 1.55 % | 49 ± 1.72 % | 54 ± 1.52 % | 39 ± 1.92 % | 48 ± 1.56 % | 54 ± 1.65 % | 58 ± 1.16 % | 42 ± 1.43 % | 0.81 ± 1.18 |  |
| O=C(O)Cc1ccccc1Nc1c(Cl)cccc1Cl [Diclofenac, Diclofenac sodium, reference compound] | 37 ± 1.69 % | 43 ± 1.42 % | 45 ± 0.92 % | 33 ± 0.96 % | 46 ± 0.95 % | 55 ± 1.16 % | 62 ± 1.49 % | 39 ± 1.13 % | 32 ± 0.69 % | 38 ± 1.42 % | 39 ± 1.97 % | 33 ± 0.93 % | 45 ± 1.65 % | 52 ± 0.96 % | 60 ± 1.52 % | 39 ± 1.13 % |  | 1.65 ± 0.48 |
